Assay results from patent publication US20090081639A1, “Assay for sensitivity to chemotherapeutic agents” (priority 2007, published 2009).
≈ marks a conversion by molar mass, not a printed value.

Legend:
Type in all cases: cell-based, human
[1] = system: THP-1 Acute myeloid leukemia cells; experiment: Chemotherapeutic Sensitivity Assay (Gus and/or LacZ output), batch infection with GLV-1h68, Example 3; details: for MIC VV / LacZ/infection inhibition: THP-1, GLV-1h68 MOI 10, 24 hours, visual; for MIC VV: β-glucuronidase (Gus) output; for LacZ/infection inhibition: β-galactosidase output
THP-1 cells [2] = experiment: MTT cell viability assay, Example 3; details: for MIC MTT / concentration at which cell death / inhibition was observed in the MTT assay: THP-1, approximately 48 hours; for MIC MTT: visual; for concentration at which cell death / inhibition was observed in the MTT assay: text of Example 3
HL-60 cells [3] = system: HL-60 cells
THP-1 cells [4] = system: THP-1 cells
KG1a cells [5] = system: KG1a cells
HL-60 cells [6] = experiment: Cell viability and growth assay (MTT reduction), Example 2; details: HL-60, approximately 48 hours, visual assessment
THP-1 cells [7] = experiment: as above; details: THP-1, approximately 48 hours, visual assessment
KG1a cells [8] = experiment: as above; details: approximately 48 hours, visual assessment
[9] = THP-1, maximal concentration used
[10] = THP-1, next lowest concentration
[11] = THP-1, GLV-1h68, 24 hours, text of Example 3

SMILES	MIC VV [1]	MIC MTT (THP-1 cells [2])	concentration at which inhibition of β-glucuronidase expression was observed [1, 11]	LacZ/infection inhibition [1]	concentration at which cell death / inhibition was observed in the MTT assay (THP-1 cells [2])	also measured
O=c1[nH]cc(F)c(=O)[nH]1 [5-Fluorouracil, 5-fluorouracil]	1.9 µM (≈ 0.247 µg/mL)	1.9 µM (≈ 0.247 µg/mL)				concentration giving very pale blue/pink color in the β-glucuronidase assay, indicating partial cell killing ([1]; THP-1, highest drug concentration tested): 1.9 µM; MTT assay observation (THP-1 cells [2]; [9]): cell death; MTT assay observation (THP-1 cells [2]; [10]): only slight cell death
Nc1ccn([C@@H]2O[C@H](CO)[C@@H](O)[C@@H]2O)c(=O)n1 [Ara-C, cytosine arabinoside]	1 µM (≈ 0.243 µg/mL)	1 µM (≈ 0.243 µg/mL)	≥ 1 µM	>1000 µM	≥ 1 µM	β-galactosidase expression (P7.5k early/late promoter) in presence of Ara-C (HL-60 cells [3]; HL-60, GLV-1h68 MOI 10, 1 nM-1 mM Ara-C, 24 hours, X-gal, visual assessment): equally robust in the presence or absence of Ara-C; effect on β-glucuronidase expression (P11k late promoter) (HL-60 cells [3]; HL-60, GLV-1h68 MOI 10, 1 nM-1 mM Ara-C, 24 hours, X-gluc, visual assessment): dose-dependent inhibition; concentration at which β-glucuronidase expression was undetectable by eye (complete abrogation of viral late transcription) (HL-60 cells [3]; HL-60, GLV-1h68 MOI 10, 24 hours, printed as 1 mM to 1 μM): ≥ 1 µM; β-galactosidase expression (P7.5k early/late promoter) in presence of Ara-C (THP-1 cells [4]; THP-1, GLV-1h68 MOI 10, 1 nM-1 mM Ara-C, 24 hours, X-gal, visual assessment): equally robust in the presence or absence of Ara-C; effect on β-glucuronidase expression (P11k late promoter) (THP-1 cells [4]; THP-1, GLV-1h68 MOI 10, 1 nM-1 mM Ara-C, 24 hours, X-gluc, visual assessment): dose-dependent inhibition; concentration at which β-glucuronidase expression was undetectable by eye (complete abrogation of viral late transcription) (THP-1 cells [4]; THP-1, GLV-1h68 MOI 10, 24 hours, printed as 1 mM to 1 μM): ≥ 1 µM; β-galactosidase expression (P7.5k early/late promoter) in presence of Ara-C (KG1a cells [5]; GLV-1h68 MOI 10, 1 nM-1 mM Ara-C, 24 hours, X-gal, visual assessment): equally robust in the presence or absence of Ara-C; effect on β-glucuronidase expression (P11k late promoter) (KG1a cells [5]; GLV-1h68 MOI 10, 1 nM-1 mM Ara-C, 24 hours, X-gluc, visual assessment): dose-dependent inhibition; concentration at which late viral transcription, as measured by β-glucuronidase expression, was abrogated (KG1a cells [5]; GLV-1h68 MOI 10, 24 hours, 'as low as'): ≥ 100 nM; concentration at which reduction of MTT was abrogated (HL-60 cells [6]): ≥ 1 µM; concentration at which reduction of MTT was abrogated (THP-1 cells [7]): ≥ 1 µM; concentration at which reduction of MTT was abrogated (KG1a cells [8]): ≥ 100 nM; β-galactosidase expression ([1]; THP-1, all concentrations less than the maximal concentration of the drug tested): unaffected; concentration at which limited inhibition of β-galactosidase expression was seen ([1]; THP-1, highest concentration of the drug tested): 1 mM
N.N.[Cl][Pt][Cl] [Cisplatin, cisplatin]		33 µM				MIC MTT, qualifier in words (THP-1 cells [2]; THP-1, line below the MIC MTT value): partial; MTT assay observation (THP-1 cells [2]; [9]): cell death; MTT assay observation (THP-1 cells [2]; [10]): only slight cell death
O=P1(N(CCCl)CCCl)NCCCO1 (stereo not drawn) [Cyclophosphamide, cyclophosphamide]	>100 µM	>100 µM	above 100 μM		above 100 μM	concentration at which β-galactosidase expression was inhibited ([1]; THP-1, Example 3): above 100 μM
COc1cccc2c1C(=O)c1c(O)c3c(c(O)c1C2=O)C[C@@](O)(C(C)=O)C[C@@H]3O[C@H]1C[C@H](N)[C@H](O)[C@H](C)O1 [Daunorubicin, daunorubicin]	0.01 µM (≈ 0.00528 µg/mL)	0.01 µM (≈ 0.00528 µg/mL)		>0.1 µM	≥ 10 µM	concentration at which some inhibition of β-galactosidase expression was seen ([1]; THP-1, Example 3): greater than 100 nM; concentration at which dose-dependent inhibition of β-glucuronidase expression starts [1, 11]: ≥ 10 nM
CC(=O)O[C@@]12CO[C@@H]1C[C@H](O)[C@@]1(C)C(=O)[C@H](O)C3=C(C)[C@@H](OC(=O)[C@H](O)[C@@H](NC(=O)OC(C)(C)C)c4ccccc4)C[C@@](O)([C@@H](OC(=O)c4ccccc4)[C@H]21)C3(C)C [Docetaxel, docetaxel]	460 µM (≈ 372 µg/mL)	46 µM (≈ 37.2 µg/mL)	460 µM	>46 µM	46 µM	concentration at which β-galactosidase expression was inhibited ([1]; THP-1, Example 3): ≥ 46 µM
COc1cc([C@@H]2c3cc4c(cc3[C@@H](O[C@@H]3O[C@@H]5CO[C@@H](C)O[C@H]5[C@H](O)[C@H]3O)[C@H]3COC(=O)[C@H]23)OCO4)cc(OC)c1O [Etopocide, etoposide]	5 µM (≈ 2.94 µg/mL)	5 µM (≈ 2.94 µg/mL)		>50 µM		
